In patent US11178871B2, “Herbicidal pyrimidine compounds” (BASF SE, priority 2016, dated 2021):

Legend:
Format in all cases: in vivo
Alopecurus myosuroides = experiment: greenhouse test, post-emergence treatment, ALOMY; conditions: post-emergence
Source text: (§1) The culture containers used were plastic flowerpots containing loamy sand with approximately 3.0% of humus as the substrate. The seeds of the test plants were sown separately for each species.
(§2) For the post-emergence treatment, the test plants were first grown to a height of 3 to 15 cm, depending on the plant habit, and only then treated with the active ingredients which had been suspended or emulsified in water. For this purpose, the test plants were either sown directly and grown in the same containers, or they were first grown separately as seedlings and transplanted into the test containers a few days prior to treatment.
(§3) Depending on the species, the plants were kept at 10-25° C. or 20-35° C., respectively.
(§4) The test period extended over 2 to 4 weeks. During this time, the plants were tended, and their response to the individual treatments was evaluated.
(§5) Evaluation was carried out using a scale from 0 to 100. 100 means no emergence of the plants, or complete destruction of at least the aerial moieties, and 0 means no damage, or normal course of growth. A good herbicidal activity is given at values of at least 70 and a very good herbicidal activity is given at values of at least 85.
(§6) The plants used in the greenhouse experiments were of the following species: […]

Echinocloa crus-galli [1] = experiment: greenhouse test, post-emergence treatment, ECHCG; conditions: post-emergence
Source text: as §1, §2, §3, §4, §5, §6

Apera spica-venti = experiment: greenhouse test, pre-emergence treatment, APESV
Source text: as §1
(§7) For the pre-emergence treatment, the active ingredients, which had been suspended or emulsified in water, were applied directly after sowing by means of finely distributing nozzles. The containers were irrigated gently to promote germination and growth and subsequently covered with transparent plastic hoods until the plants had rooted. This cover caused uniform germination of the test plants, unless this had been impaired by the active ingredients.
as §3, §4, §5, §6

Echinocloa crus-galli [2] = experiment: greenhouse test, pre-emergence treatment, ECHCG
Source text: as §1, §7, §3, §4, §5, §6

Avena fatua = experiment: greenhouse test, post-emergence treatment, AVEFA
Source text: as §1, §2, §3, §4, §5, §6

CC(=O)OC(c1nc(C2CC2)ncc1-c1ccccc1Cl)C(C)(C)OC(C)=O (stereo not shown) [Ex. 274]
herbicidal activity (Alopecurus myosuroides; 1000 g/ha): very good (a very good herbicidal activity is given at values of at least 85) | herbicidal activity (Echinocloa crus-galli [1]; 1000 g/ha): very good (a very good herbicidal activity is given at values of at least 85) | herbicidal activity (Apera spica-venti; 1000 g/ha): very good (a very good herbicidal activity is given at values of at least 85) | herbicidal activity (Echinocloa crus-galli [2]; 1000 g/ha): very good (a very good herbicidal activity is given at values of at least 85)

Fc1cccc(Cl)c1-c1cnc(C2CC2)nc1-c1ccco1 [Ex. 60]
herbicidal activity (Alopecurus myosuroides; 1000 g/ha): very good (a very good herbicidal activity is given at values of at least 85) | herbicidal activity (Avena fatua; 1000 g/ha): very good (a very good herbicidal activity is given at values of at least 85)

Cc1ccoc1-c1nc(C2CC2)ncc1-c1ccccc1I [Ex. 77]
herbicidal activity (Alopecurus myosuroides; 1000 g/ha): very good (a very good herbicidal activity is given at values of at least 85) | herbicidal activity (Avena fatua; 1000 g/ha): very good (a very good herbicidal activity is given at values of at least 85)

OC1(Cc2nc(C3CC3)ncc2-c2ccccc2Br)COC1 [Ex. 155]
herbicidal activity (Alopecurus myosuroides; 2000 g/ha): very good (a very good herbicidal activity is given at values of at least 85) | herbicidal activity (Echinocloa crus-galli [1]; 2000 g/ha): very good (a very good herbicidal activity is given at values of at least 85)

Clc1ccccc1-c1cnc(C2CC2)nc1CCc1ccco1 [Ex. 102]
herbicidal activity (Echinocloa crus-galli [1]; 2000 g/ha): very good (a very good herbicidal activity is given at values of at least 85)

CCc1ncc(-c2ccccc2Br)c(-c2ccoc2)n1 [Ex. 63]
herbicidal activity (Echinocloa crus-galli [1]; 1000 g/ha): very good (a very good herbicidal activity is given at values of at least 85)

Brc1ccccc1-c1cnc(C2CC2)nc1-c1ccco1 [Ex. 34]
herbicidal activity (Alopecurus myosuroides; 2000 g/ha): good (A good herbicidal activity is given at values of at least 70) | herbicidal activity (Echinocloa crus-galli [1]; 2000 g/ha): very good (a very good herbicidal activity is given at values of at least 85) | herbicidal activity (Apera spica-venti; 2000 g/ha): very good (a very good herbicidal activity is given at values of at least 85) | herbicidal activity (Echinocloa crus-galli [2]; 2000 g/ha): good (A good herbicidal activity is given at values of at least 70)

N#Cc1csc(-c2nc(C3CC3)ncc2-c2ccccc2Cl)c1 [Ex. 126]
herbicidal activity (Echinocloa crus-galli [1]; 2000 g/ha): very good (a very good herbicidal activity is given at values of at least 85)

OC1(Cc2nc(C3CC3)ncc2-c2ccccc2Cl)COC1 [Ex. 73]
herbicidal activity (Alopecurus myosuroides; 2000 g/ha): good (A good herbicidal activity is given at values of at least 70)

CC(C)(O)c1nc(C2CC2)ncc1-c1ccc(F)cc1Cl [Ex. 135]
herbicidal activity (Alopecurus myosuroides; 500 g/ha): good (A good herbicidal activity is given at values of at least 70)

OC(Cc1nc(C2CC2)ncc1-c1ccccc1Cl)c1nc(Cl)ccc1Cl (stereo not shown) [Ex. 256]
herbicidal activity (Echinocloa crus-galli [1]; 2000 g/ha): very good (a very good herbicidal activity is given at values of at least 85) | herbicidal activity (Apera spica-venti; 2000 g/ha): very good (a very good herbicidal activity is given at values of at least 85) | herbicidal activity (Echinocloa crus-galli [2]; 2000 g/ha): very good (a very good herbicidal activity is given at values of at least 85)

CCOP(=O)(OCC)C(OS(C)(=O)=O)c1nc(C2CC2)ncc1-c1ccccc1Cl (stereo not shown) [Ex. 89]
herbicidal activity (Alopecurus myosuroides; 2000 g/ha): very good (a very good herbicidal activity is given at values of at least 85) | herbicidal activity (Avena fatua; 2000 g/ha): good (A good herbicidal activity is given at values of at least 70) | herbicidal activity (Apera spica-venti; 2000 g/ha): good (A good herbicidal activity is given at values of at least 70)

Clc1ccccc1-c1cnc(C2CC2)nc1-c1cocn1 [Ex. 215]
herbicidal activity (Alopecurus myosuroides; 2000 g/ha): very good (a very good herbicidal activity is given at values of at least 85) | herbicidal activity (Apera spica-venti; 2000 g/ha): very good (a very good herbicidal activity is given at values of at least 85)

Clc1ccccc1-c1cnc(C2CC2)nc1/C=C/c1ccco1 [Ex. 94]
herbicidal activity (Alopecurus myosuroides; 2000 g/ha): very good (a very good herbicidal activity is given at values of at least 85) | herbicidal activity (Avena fatua; 2000 g/ha): very good (a very good herbicidal activity is given at values of at least 85) | herbicidal activity (Apera spica-venti; 2000 g/ha): very good (a very good herbicidal activity is given at values of at least 85)

COC(=O)C(O)c1nc(C2CC2)ncc1-c1ccccc1Cl (stereo not shown) [Ex. 220]
herbicidal activity (Echinocloa crus-galli [2]; 1000 g/ha): good (A good herbicidal activity is given at values of at least 70)

CC(C)(C)/C=C/c1nc(C2CC2)ncc1-c1ccccc1Cl [Ex. 95]
herbicidal activity (Alopecurus myosuroides; 2000 g/ha): very good (a very good herbicidal activity is given at values of at least 85) | herbicidal activity (Echinocloa crus-galli [1]; 2000 g/ha): very good (a very good herbicidal activity is given at values of at least 85) | herbicidal activity (Apera spica-venti; 2000 g/ha): very good (a very good herbicidal activity is given at values of at least 85)

COc1cccc(-c2nc(C3CC3)ncc2-c2ccccc2Cl)c1 [Ex. 125]
herbicidal activity (Echinocloa crus-galli [1]; 500 g/ha): very good (a very good herbicidal activity is given at values of at least 85)

Cc1ccc(-c2nc(C3CC3)ncc2-c2ccc(F)cc2I)o1 [Ex. 81]
herbicidal activity (Alopecurus myosuroides; 1000 g/ha): very good (a very good herbicidal activity is given at values of at least 85) | herbicidal activity (Avena fatua; 1000 g/ha): very good (a very good herbicidal activity is given at values of at least 85)

OC1(c2nc(C3CC3)ncc2-c2ccccc2Cl)CCC1 [Ex. 143]
herbicidal activity (Echinocloa crus-galli [1]; 2000 g/ha): very good (a very good herbicidal activity is given at values of at least 85)

Clc1ccccc1-c1cnc(C2CC2)nc1COCc1ccccc1 [Ex. 21]
herbicidal activity (Alopecurus myosuroides; 1000 g/ha): very good (a very good herbicidal activity is given at values of at least 85) | herbicidal activity (Apera spica-venti; 1000 g/ha): very good (a very good herbicidal activity is given at values of at least 85)

CC(C)=CC=Cc1nc(C2CC2)ncc1-c1ccccc1Cl [Ex. 224]
herbicidal activity (Alopecurus myosuroides; 2000 g/ha): very good (a very good herbicidal activity is given at values of at least 85) | herbicidal activity (Echinocloa crus-galli [1]; 2000 g/ha): very good (a very good herbicidal activity is given at values of at least 85) | herbicidal activity (Apera spica-venti; 2000 g/ha): very good (a very good herbicidal activity is given at values of at least 85) | herbicidal activity (Echinocloa crus-galli [2]; 2000 g/ha): very good (a very good herbicidal activity is given at values of at least 85)

Cc1ccc(-c2nc(C3CC3)ncc2-c2cc(F)c(F)cc2Cl)o1 [Ex. 79]
herbicidal activity (Alopecurus myosuroides; 1000 g/ha): very good (a very good herbicidal activity is given at values of at least 85) | herbicidal activity (Avena fatua; 1000 g/ha): very good (a very good herbicidal activity is given at values of at least 85)

Cc1ccc(-c2nc(C3CC3)ncc2-c2ccccc2Cl)o1 [Ex. 26]
herbicidal activity (Alopecurus myosuroides; 2000 g/ha): very good (a very good herbicidal activity is given at values of at least 85) | herbicidal activity (Echinocloa crus-galli [1]; 2000 g/ha): very good (a very good herbicidal activity is given at values of at least 85) | herbicidal activity (Apera spica-venti; 2000 g/ha): very good (a very good herbicidal activity is given at values of at least 85) | herbicidal activity (Echinocloa crus-galli [2]; 2000 g/ha): very good (a very good herbicidal activity is given at values of at least 85)

OC(Cc1nc(C2CC2)ncc1-c1ccccc1Cl)c1ccccc1 (stereo not shown) [Ex. 66]
herbicidal activity (Echinocloa crus-galli [1]; 2000 g/ha): very good (a very good herbicidal activity is given at values of at least 85)

Clc1ccccc1-c1cnc(C2CC2)nc1CC1=CCOCC1 [Ex. 104]
herbicidal activity (Alopecurus myosuroides; 2000 g/ha): very good (a very good herbicidal activity is given at values of at least 85) | herbicidal activity (Echinocloa crus-galli [1]; 2000 g/ha): good (A good herbicidal activity is given at values of at least 70) | herbicidal activity (Apera spica-venti; 2000 g/ha): very good (a very good herbicidal activity is given at values of at least 85) | herbicidal activity (Echinocloa crus-galli [2]; 2000 g/ha): good (A good herbicidal activity is given at values of at least 70)

OC(c1nc(C2CC2)ncc1-c1ccccc1Cl)C(O)c1c(Cl)ccc(Cl)c1Cl (stereo not shown) [Ex. 240]
herbicidal activity (Apera spica-venti; 2000 g/ha): very good (a very good herbicidal activity is given at values of at least 85) | herbicidal activity (Echinocloa crus-galli [2]; 2000 g/ha): very good (a very good herbicidal activity is given at values of at least 85)

Cc1ccc(-c2nc(C3CC3)ncc2-c2cc(F)ccc2C)o1 [Ex. 110]
herbicidal activity (Echinocloa crus-galli [1]; 1000 g/ha): good (A good herbicidal activity is given at values of at least 70)

Fc1ccc(-c2cnc(C3CC3)nc2-c2cc3cc(Cl)ccc3o2)c(Cl)c1 [Ex. 44]
herbicidal activity (Avena fatua; 1000 g/ha): very good (a very good herbicidal activity is given at values of at least 85) | herbicidal activity (Echinocloa crus-galli [1]; 1000 g/ha): very good (a very good herbicidal activity is given at values of at least 85)

O=C(O)C(O)Cc1nc(C2CC2)ncc1-c1ccccc1Cl (stereo not shown) [Ex. 97]
herbicidal activity (Echinocloa crus-galli [1]; 2000 g/ha): very good (a very good herbicidal activity is given at values of at least 85) | herbicidal activity (Apera spica-venti; 2000 g/ha): very good (a very good herbicidal activity is given at values of at least 85)

Cc1ncoc1-c1nc(C2CC2)ncc1-c1ccc(C(F)(F)F)cc1Cl [Ex. 264]
herbicidal activity (Alopecurus myosuroides; 500 g/ha): very good (a very good herbicidal activity is given at values of at least 85) | herbicidal activity (Avena fatua; 500 g/ha): very good (a very good herbicidal activity is given at values of at least 85)

CC(O)c1nc(C2CC2)ncc1-c1ccc(F)cc1Cl (stereo not shown) [Ex. 112]
herbicidal activity (Echinocloa crus-galli [1]; 1000 g/ha): good (A good herbicidal activity is given at values of at least 70)

Cc1nc(-c2nc(C3CC3)ncc2-c2ccccc2Br)co1 [Ex. 288]
herbicidal activity (Alopecurus myosuroides; 2000 g/ha): very good (a very good herbicidal activity is given at values of at least 85)

FC(F)(F)c1ccc(-c2nc(C3CC3)ncc2-c2ccccc2Cl)s1 [Ex. 216]
herbicidal activity (Alopecurus myosuroides; 1000 g/ha): very good (a very good herbicidal activity is given at values of at least 85) | herbicidal activity (Echinocloa crus-galli [1]; 1000 g/ha): very good (a very good herbicidal activity is given at values of at least 85) | herbicidal activity (Apera spica-venti; 1000 g/ha): very good (a very good herbicidal activity is given at values of at least 85)

Cc1ccc(-c2nc(C3CC3)ncc2-c2ccccc2C)o1 [Ex. 120]
herbicidal activity (Alopecurus myosuroides; 1000 g/ha): good (A good herbicidal activity is given at values of at least 70)
